Where two headings read alike, the source gives them in different places.
Tests used:
[1] = Rat liver microsome stability; format: in vitro ADME; settings: for Rat LM Stability: % Compound remaining at 65 min in rat liver microsomes
[2] = Cyno liver microsome stability; format: in vitro ADME, cynomolgus monkey; settings: for Cyno LM Stability: % Compound remaining at 65 min in cyno liver microsomes; for metabolic stability when exposed to cynomolgus monkey liver microsomes: compared with pyridine counterpart Example 76
[3] = target: T1, recombinant human CYP11B1 (Homo sapiens, UniProt P15538); experiment: CYP11B1 enzyme assay, enzyme enriched microsomes from V79-4 cells, cortisol by LC-MS; format: biochemical
T1 construct: made in house; host or cells: V79-4 cells (enzyme enriched microsomal fraction of cell lysates)
T1 sequence (P15538 25-503): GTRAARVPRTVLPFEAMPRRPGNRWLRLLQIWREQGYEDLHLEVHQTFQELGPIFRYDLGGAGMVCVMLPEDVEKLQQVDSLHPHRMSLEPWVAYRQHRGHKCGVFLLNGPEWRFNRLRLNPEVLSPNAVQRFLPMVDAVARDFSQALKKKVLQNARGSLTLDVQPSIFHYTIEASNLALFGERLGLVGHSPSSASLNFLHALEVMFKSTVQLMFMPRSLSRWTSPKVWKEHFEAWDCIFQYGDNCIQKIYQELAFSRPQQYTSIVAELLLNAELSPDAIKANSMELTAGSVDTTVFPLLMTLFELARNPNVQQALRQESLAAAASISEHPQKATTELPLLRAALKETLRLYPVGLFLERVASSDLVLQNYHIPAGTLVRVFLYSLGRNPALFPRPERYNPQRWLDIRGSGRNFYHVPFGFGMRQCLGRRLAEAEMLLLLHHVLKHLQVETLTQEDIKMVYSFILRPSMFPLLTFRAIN
Protocol: (§1) An enzyme enriched microsomal fraction was prepared from cellular lysates and subsequently used as the enzyme source for determining inhibitor IC50s. […] Enzyme assays for inhibitor screening employed CYP11B2 and CYP11B1 enzyme enriched microsomes and were run at the Km of the respective substrates. Products of the enzyme reactions, aldosterone for CYP11B2 or cortisol for CYP11B1, were measured by LC-MS. Assays were run under conditions of less than 20% substrate turnover. Inhibitor IC50s were generated by determining the product formation in the absence or presence of inhibitor at various concentrations. In the absence of the test compound, the product formed (Pt) in each data set was defined as 100% activity. In the absence of enzyme, the product formed (Pb) in each data set was defined as 0% activity. The percent activity in the presence of each inhibitor was calculated according to the following equation: % activity=(P−Pb)/(Pt−Pb), where P=the product formed in the presence of the inhibitor.

[4] = target: T2, recombinant human CYP11B2 (Homo sapiens, UniProt P19099); experiment: CYP11B2 enzyme assay, enzyme enriched microsomes from V79-4 cells, aldosterone by LC-MS; format: biochemical; settings: for Selectivity: CYP11B1 IC50/CYP11B2 IC50
T2 construct: made in house; host or cells: V79-4 cells (enzyme enriched microsomal fraction of cell lysates)
T2 sequence (P19099 25-503): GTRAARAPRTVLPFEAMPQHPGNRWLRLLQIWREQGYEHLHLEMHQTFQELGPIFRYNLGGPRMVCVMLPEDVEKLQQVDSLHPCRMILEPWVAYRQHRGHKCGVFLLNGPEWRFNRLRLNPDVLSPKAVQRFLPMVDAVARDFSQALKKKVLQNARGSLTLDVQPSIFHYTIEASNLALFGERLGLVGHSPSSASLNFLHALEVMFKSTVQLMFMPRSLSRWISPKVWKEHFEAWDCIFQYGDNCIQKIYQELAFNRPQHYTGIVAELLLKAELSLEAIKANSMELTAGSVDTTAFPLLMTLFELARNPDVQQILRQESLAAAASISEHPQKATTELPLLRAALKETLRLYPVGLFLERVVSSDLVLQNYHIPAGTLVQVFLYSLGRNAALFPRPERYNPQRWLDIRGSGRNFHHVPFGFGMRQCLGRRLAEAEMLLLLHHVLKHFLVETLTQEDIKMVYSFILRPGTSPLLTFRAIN
Protocol: as §1

[5] = Cyno half life after PO dose; parameters: species or system cynomolgus monkeys; settings: cynomolgus monkey; for half-life: in vivo, 1 mg/kg PO dose, read-out: Cyno T½ (converted)
[6] = IC50 ranges, run at Km of 11-deoxycortisol, read-out: hCYP11B1 IC50
[7] = Table 3 comparison, read-out: CYP11B1 IC50
[8] = IC50 ranges, run at Km of 11-deoxycorticosterone, read-out: hCYP11B2 IC50
[9] = Table 3 comparison, read-out: CYP11B2 IC50

Compound	Rat LM Stability [1] [%]	Cyno LM Stability [2] [%]	IC50 [3, 6] [nM]	IC50 [3, 7] [nM]	Selectivity [4]	IC50 [4, 8] [nM]	IC50 [4, 9] [nM]	metabolic stability when exposed to cynomolgus monkey liver microsomes [2]	in vivo half-lives in cynomolgus monkeys [5]	half-life [5] [h]	metabolic stability when exposed to rat liver microsomes ([1]; compared with pyridine counterpart Example 76)
FC(F)(F)c1ncncc1-c1nc2cc(Cl)cnc2n1C1CC1 [Example 66, 6-Chloro-3-cyclopropyl-2-(4-(trifluoromethyl)pyrimidin-5-yl)-3H-imidazo[4,5-b]pyridine]			> 10000			1000 to 10000					
CCn1c(-c2cncnc2C(F)(F)F)nc2cc(F)c(F)cc21 [Example 67, 1-Ethyl-5,6-difluoro-2-(4-(trifluoromethyl)pyrimidin-5-yl)-1H-benzo[d]imidazole]			> 10000			100 to 1000					
CCn1c(-c2cncnc2C(F)(F)F)nc2ccc(Cl)nc21 [Example 68, 5-Chloro-3-ethyl-2-(4-(trifluoromethyl)pyrimidin-5-yl)-3H-imidazo[4,5-b]pyridine]			> 10000			100 to 1000					
CCn1c(-c2cncnc2C(F)(F)F)nc2ccc(C#N)nc21 [Example 69, 3-ethyl-2-(4-(trifluoromethyl)pyrimidin-5-yl)-3H-imidazo[4,5-b]pyridine-5-carbonitrile]			> 10000			100 to 1000					
O=C(O)c1ccc2nc(-c3cncnc3C(F)(F)F)n(C3CC3)c2c1 [Example 70, 1-Cyclopropyl-2-(4-(trifluoromethyl)pyrimidin-5-yl)-1H-benzo[d]imidazole-6-carboxylic acid]			> 10000			> 10000					
CC(F)(F)c1ncncc1-c1nc2cc(F)c(F)cc2n1C1CC1 [Example 71, 1-Cyclopropyl-2-(4-(1,1-difluoroethyl)pyrimidin-5-yl)-5,6-difluoro-1H-benzo[d]imidazole]			1000 to 10000			1 to 100					
Fc1cc2nc(-c3cncnc3C3CC3)n(C3CC3)c2cc1F [Example 72, 1-Cyclopropyl-2-(4-cyclopropylpyrimidin-5-yl)-5,6-difluoro-1H-benzo[d]imidazole]			> 10000			100 to 1000					
CC(C)(O)c1ncncc1-c1nc2ccc(C#N)cc2n1C1CC1 [Example 73, 1-Cyclopropyl-2-(4-(2-hydroxypropan-2-yl)pyrimidin-5-yl)-1H-benzo[d]imidazole-6-carbonitrile]			> 10000			100 to 1000					

The next lines start with the values.

Rat LM Stability [1] [%]	Cyno LM Stability [2] [%]	IC50 [3, 6] [nM]	IC50 [3, 7] [nM]	Selectivity [4]	IC50 [4, 8] [nM]	IC50 [4, 9] [nM]	metabolic stability when exposed to cynomolgus monkey liver microsomes [2]	in vivo half-lives in cynomolgus monkeys [5]	half-life [5] [h]	metabolic stability when exposed to rat liver microsomes ([1]; compared with pyridine counterpart Example 76)	Compound
0	70	1000 to 10000	5380	134	1 to 100	40					Fc1ccc2nc(-c3cncnc3)n(C3CC3)c2c1 [Example 1, 1-Cyclopropyl-6-fluoro-2-(pyrimidin-5-yl)-1H-benzo[d]imidazole]
	106	1000 to 10000	4720		1 to 100	17	much greater metabolic stability	long in vivo half-lives	16.9		Fc1cc2nc(-c3cncnc3C(F)F)n(C3CC3)c2cc1F [Example 27, 1-Cyclopropyl-2-(4-(difluoromethyl)pyrimidin-5-yl)-5,6-difluoro-1H-benzo[d]imidazole]
108	99	1000 to 10000	6370	199	1 to 100	32	much greater metabolic stability	long in vivo half-lives	37.5	much greater metabolic stability	Fc1cc2nc(-c3cncnc3C(F)(F)F)n(C3CC3)c2cc1F [Example 30, 1-Cyclopropyl-5,6-difluoro-2-(4-(trifluoromethyl)pyrimidin-5-yl)-1H-benzo[d]imidazole]
96	72	1000 to 10000	4160	244	1 to 100	17					Cc1ncncc1-c1nc2cc(F)c(F)cc2n1C1CC1 [Example 44, 1-Cyclopropyl-5,6-difluoro-2-(4-methylpyrimidin-5-yl)-1H-benzo[d]imidazole]

— patent US11919883B2, “Metalloenzyme inhibitor compounds” (Ji Xing Pharmaceuticals Hong Kong Limited, priority 2016, dated 2024)
